Measurements published in patent US6482849B1, “Inhibitors of α4β1 mediated cell adhesion” (Tanabe Seiyaku Co., Ltd., priority 1997, dated 2002).

Assays:
[1] = biological target: T1, α4β1 integrin (Jurkat cell adhesion to immobilized CS-1 derived peptide CLHPGEILDVPST) (Homo sapiens, UniProt P05556+P13612); experiment: Jurkat-CS-1 Assay; assay type: cell-based; settings: Jurkat cells on CS-1 peptide coated plates
T1 construct: 100 μl of Jurkat cells (2.5×10^6 cells/ml) in DMEM plus BSA; endogenous in cells; host or cells: Jurkat T-cell line
T1 sequence (P13612 34-1032): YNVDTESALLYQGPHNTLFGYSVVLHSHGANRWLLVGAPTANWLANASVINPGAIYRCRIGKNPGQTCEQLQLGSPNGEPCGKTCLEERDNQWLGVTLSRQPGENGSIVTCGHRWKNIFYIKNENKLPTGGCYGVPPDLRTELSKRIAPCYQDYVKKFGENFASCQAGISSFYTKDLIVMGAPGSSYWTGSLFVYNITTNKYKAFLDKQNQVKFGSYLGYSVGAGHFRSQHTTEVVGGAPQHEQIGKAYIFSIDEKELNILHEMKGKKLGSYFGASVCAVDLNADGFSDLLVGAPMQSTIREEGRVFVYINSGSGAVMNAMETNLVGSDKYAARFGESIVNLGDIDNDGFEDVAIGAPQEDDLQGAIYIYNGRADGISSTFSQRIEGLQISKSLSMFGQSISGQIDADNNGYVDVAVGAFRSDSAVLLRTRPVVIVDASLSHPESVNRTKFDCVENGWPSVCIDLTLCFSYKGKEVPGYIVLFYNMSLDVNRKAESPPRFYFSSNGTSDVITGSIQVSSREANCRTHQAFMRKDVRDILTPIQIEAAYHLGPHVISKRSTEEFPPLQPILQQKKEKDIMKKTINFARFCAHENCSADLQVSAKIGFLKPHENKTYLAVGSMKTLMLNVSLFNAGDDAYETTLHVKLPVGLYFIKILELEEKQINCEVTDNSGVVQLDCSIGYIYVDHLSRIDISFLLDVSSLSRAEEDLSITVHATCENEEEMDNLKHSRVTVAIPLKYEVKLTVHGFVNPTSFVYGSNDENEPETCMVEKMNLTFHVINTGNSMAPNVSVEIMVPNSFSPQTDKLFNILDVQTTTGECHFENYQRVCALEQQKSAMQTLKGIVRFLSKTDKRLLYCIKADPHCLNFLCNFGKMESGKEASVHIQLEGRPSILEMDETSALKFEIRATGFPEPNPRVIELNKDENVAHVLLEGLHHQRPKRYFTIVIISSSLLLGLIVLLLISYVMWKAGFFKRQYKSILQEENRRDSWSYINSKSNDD
T1 sequence (P05556 21-798): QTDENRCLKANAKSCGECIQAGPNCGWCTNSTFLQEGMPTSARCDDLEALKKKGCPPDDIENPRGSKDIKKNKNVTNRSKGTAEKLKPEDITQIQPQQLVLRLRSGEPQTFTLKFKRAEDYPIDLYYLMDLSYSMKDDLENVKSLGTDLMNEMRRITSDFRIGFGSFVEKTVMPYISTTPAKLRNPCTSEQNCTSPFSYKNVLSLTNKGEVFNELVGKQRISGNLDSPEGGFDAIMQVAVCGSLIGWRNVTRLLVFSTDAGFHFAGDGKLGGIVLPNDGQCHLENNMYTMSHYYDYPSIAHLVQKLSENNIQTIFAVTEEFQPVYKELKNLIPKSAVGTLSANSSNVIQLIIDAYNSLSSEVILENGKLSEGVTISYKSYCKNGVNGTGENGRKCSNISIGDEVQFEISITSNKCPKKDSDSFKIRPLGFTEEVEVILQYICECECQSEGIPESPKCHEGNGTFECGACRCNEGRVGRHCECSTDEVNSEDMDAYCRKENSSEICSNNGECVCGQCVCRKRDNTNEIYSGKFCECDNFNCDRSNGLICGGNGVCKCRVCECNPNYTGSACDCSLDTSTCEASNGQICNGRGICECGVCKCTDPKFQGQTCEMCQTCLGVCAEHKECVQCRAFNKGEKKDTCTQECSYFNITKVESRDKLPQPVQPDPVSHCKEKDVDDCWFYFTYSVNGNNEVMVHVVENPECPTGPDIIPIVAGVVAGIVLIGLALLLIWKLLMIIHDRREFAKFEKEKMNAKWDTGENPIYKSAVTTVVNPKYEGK
Protocol: The CS-1 derived peptide, CLHPGEILDVPST, and the scrambled control peptide, CLHGPIELVSDPT, were synthesized on a Beckman 990 synthesizer using t-Boc methodology. The peptides were immobilized onto microtiter plates using the heterobifunctional crosslinker 3-(2-pyridyldithio)propionic acid N-hydroxysuccinimide ester (SPDP) as reported by Pierschbacher et al., Proc. Natl. Acad. USA, 80:1224-1227 (1983). Microtiter plates were coated with 20 μg/ml HSA for 2 hr. at room temperature, washed once with PBS and derivatized with 10 μg/ml SPDP for 1 hr. After washing, 100 μl of a 100 μg/ml cysteine containing peptide solution which had been recently dissolved was added to the wells and allowed to crosslink to the plates overnight at 4° C. Unbound peptide was removed from plates by washing with PBS. To block non-reacted sites, the plates are coated with 100 μl of a 2.5 mg/ml BSA solution in PBS for 1 hr. at 37° C. 100 μl of Jurkat cells (2.5×10^6 cells/ml) in DMEM plus BSA (2.5 mg/ml) was mixed with an appropriate concentration of the compound to be tested and the mixture was added to peptide coated dishes and incubated for 1 hr. at 37° C. Generally 100, 20, 5 and 1.25 μM concentrations of the compound were tested.
Following this incubation the plates were washed once with PBS and the attached cells were fixed with 3% paraformaldehyde in PBS and stained with 0.5% toluidine blue in 3.7% formaldehyde. The cells were stained overnight at room temperature and the optical density at 590 nm of toluidine blue stained cells was determined using a vertical pathway spectrophotometer to quantitate attachment (VMAX Kinetic Microplate Reader, Molecular Devices, Menlo Park, Calif.). This procedure is a modification of a previously published method (Cardarelli et al, J. Biol. Chem., 269:18668-18673 (1994) and Cardarelli et al, Proc. Natl. Acad. Sci. USA, 83:2647-2651 (1986)).

[2] = biological target: T2, α4β1 integrin (Jurkat T-cell adhesion to IL-1 stimulated endothelial cell monolayers) (Homo sapiens, UniProt P05556+P13612); experiment: Jurkat-Endothelial Cell Adhesion Assay (Jurkat EC); assay type: cell-based; settings: Jurkat cells on IL-1 stimulated HUVEC monolayers
T2 construct: a T-cell line, Jurkat, known to express the α4β1 integrin; host or cells: Jurkat T-cell line
T2 sequence (P13612 34-1032): as the sequence (P13612 34-1032) above
T2 sequence (P05556 21-798): as the sequence (P05556 21-798) above
Protocol: The following assay established the activity of the present compounds in inhibiting β1-mediated cell adhesion in a representative in vitro system. This assay measures the adhesive interactions of a T-cell line, Jurkat, known to express the α4β1 integrin, to endothelial monolayers in the presence of test compounds. The test compounds were added in increasing concentrations to T-cells and then the T-cell compound mixture was added to IL-1 stimulated endothelial cell monolayers. The plates were incubated, washed and the percentage of attached cells was quantitated. […] Human umbilical vein endothelial cells were purchased from Clonetics (San Diego, Calif.) at passage number 2. The cells were grown on 0.5% porcine skin gelatin pre-coated flasks (Sigma, St. Louis Mo.) in EGM-UV media (Clonetics, San Diego, Calif.) supplemented with 10% fetal bovine serum. Cells are refed every 2-3 days reaching confluence by day 4 to 6. […] The endothelial cells are not used following passage 6. Am The T-cell line Jurkat was obtained from American Type Tissue Culture Collection (Rockville, Md.) and the cells were cultured in RPMI containing 10% fetal calf serum. The cells were washed twice in Hank's Balanced Salt Solution (HBSS) and resuspended in Dulbecco's […] Eagle's Media (DMEM) containing 2.5 mg/ml Human Serum Albumin (HSA). Jurkat cells (1×10^6 cells/ml) were stained with 10 ng/ml BCECF-AM z z (Molecular Probes, Eugene, Ore.)) in HBSS without phenol red. The cells were loaded with BCECF for 60 minutes in the dark at 37° C., washed 2 times, and resusupended in DMEM-HSA solution.
Confluent endothelial monolayers, grown in 96-well tissue culture plates, were stimulated for 4 hr. at 37° C. with 0.1 ng/ml (˜50 U/ml) recombinant IL-1 (Amgen, Thousand Oaks, Calif.). Following this incubation, the monolayers were washed twice with HBSS and 0.1 ml of DMEM-HSA solution was added. Jurkat cells (5×10^5 cells) were combined with the appropriate concentration of the test compound and 0.1 ml of the Jurkat cell-compound mixture was added to the endothelial cell monolayers. Generally, 100, 20, 5 and 1.25 μM compound concentrations were tested. […] The plates were placed on ice for 5 minutes to allow for Jurkat cell settling and the plates were incubated at 37° C. for 20 minutes. Following this incubation, the monolayers were washed twice with PBS containing 1 mM calcium chloride and 1 mM magnesium chloride and the plates were read using a Millipore Cytofluor 2300 (Marlboro, Mass.). Fluorescence in each well was measured as Arbitrary Fluorescence Units and percent adhesion in the absence of compound was adjusted to 100% and the % adhesion in the presence of compound was calculated. Monolayers were also fixed in 3% paraformaldehyde and evaluated microscopically to verify the adhesion. This procedure is a modification of a previously published method (Cardarelli et al., J. Biol. Chem. 269:18668-18673 (1994)).

melting point | IC50 [1] | IC50 [2] | Compound
106 to 108 °C | – | – | CC1(C)[C@@H](C(=O)O)CC[C@@]1(C)C(=O)N[C@H](CC(=O)O)Cc1ccc(OCc2c(Cl)cccc2Cl)cc1 (relative stereo) [Example 204, [1R-[1α(S*),3α]]-β-[[(3-Carboxy-1,2,2-trimethylcyclopentyl)carbonyl]amino]-4-[(2,6-dichlorophenyl)methoxy]-benzenebutanoic acid]
174 to 175 °C (dec.) | – | – | COC(=O)C(Cc1cn(Cc2ccc(Cl)c(Cl)c2)cn1)NC(=O)[C@H]1CC[C@@](C)(C(=O)O)C1(C)C (stereo in doubt) [Example 3, (1S-cis)-N-[(3-Carboxy-2,2,3-trimethylcyclopentyl)carbonyl]-1-[(3,4-dichlorophenyl)methyl]-L-histidine methyl ester]
234 to 235 °C | – | – | CC(C)(C)OC(=O)[C@]1(C)CC[C@H](C(=O)N[C@@H](Cc2cn(Cc3ccc(Cl)c(Cl)c3)cn2)C(=O)O)C1(C)C [Example 202, (1S-cis)-1-[(3,4-Dichlorophenyl)methyl]-N-[[3-[(1,1-dimethylethoxy)carbonyl]-2,2,3-trimethylcyclopentyl]carbonyl]-L-histidine]
– | ≤ 80 nM | ≤ 800 nM | CC1(C)[C@@H](C(=O)N[C@@H](Cc2ccc(NC(=O)c3c(Cl)cccc3Cl)cc2)C(=O)O)CC[C@@]1(C)C(=O)N1CCOCC1 [Example 225, (1S-cis)-4-[(2,6-Dichlorobenzoyl)amino]-N-[[2,2,3-trimethyl-3-[(4-morpholinyl)carbonyl]-cyclopentyl]carbonyl]-L-phenylalanine]
– | 500 to 1000 nM | ≤ 800 nM | COC(=O)[C@H](Cc1ccc(NC(=O)c2cc(C(F)(F)F)ccc2Cl)cc1)NC(=O)[C@H]1CC[C@@](C)(C(=O)O)C1(C)C [Example 231, (1S-cis)-N-[(3-Carboxy-2,2,3-trimethyl-cyclopentyl)carbonyl]-4-[(2-chloro-5-trifluoromethylbenzoyl)amino]-L-phenylalanine methyl ester]
– | ≤ 80 nM | ≤ 800 nM | CC1(C)[C@@H](C(=O)N[C@@H](Cc2ccc(NC(=O)c3cc(C(F)(F)F)ccc3Cl)cc2)C(=O)O)CC[C@@]1(C)C(=O)O [Example 232, (1S-cis)-N-[(3-Carboxy-2,2,3-trimethyl-cyclopentyl)carbonyl]-4-[(2-chloro-5-trifluoromethylbenzoyl)amino]-L-phenylalanine]
232 to 233 °C | – | – | COC(=O)[C@H](Cc1ccc(NC(=O)c2c(Cl)cccc2Cl)cc1)NC(=O)[C@H]1CC[C@@](C)(C(=O)NCC(N)=O)C1(C)C [Example 233, (1S-cis)-N-[[3-[[(2-Amino-2-oxoethyl)amino]carbonyl]-2,2,3-trimethylcyclopentyl]carbonyl]-4-[(2,6-dichlorobenzoyl)amino]-L-phenylalanine methyl ester]
263 to 267 °C | – | – | CC1(C)[C@@H](C(=O)N[C@H](Cc2ccc(NC(=O)c3c(Cl)cccc3Cl)cc2)C(=O)O)CC[C@@]1(C)C(=O)O [Example 237, (1S-cis)-N-[(3-Carboxy-2,2,3-trimethylcyclopentyl)carbonyl]-4-[(2,6-dichlorobenzoyl)amino]-D-phenylalanine]
152 to 157 °C | – | – | CC1(C)[C@H](C(=O)O)CC[C@]1(C)C(=O)N[C@@H](Cc1ccc(NC(=O)c2c(Cl)cccc2Cl)cc1)C(=O)O [Example 244, (1S-cis)-N-[(3-Carboxy-1,2,2-trimethylcyclopentyl)carbonyl]-4-[(2,6-dichlorobenzoyl)amino]-L-phenylalanine]
– | 80 to 500 nM | 800 to 5000 nM | CC(C)(C)c1ccc(C(=O)Nc2ccc(C[C@H](NC(=O)[C@H]3CC[C@@](C)(C(=O)O)C3(C)C)C(=O)O)cc2)c(Cl)c1 [Example 253, (1S-cis)-N-[(3-Carboxy-2,2,3-trimethylcyclopentyl)carbonyl]-4-[[2-chloro-4-[(1,1-dimethyl)ethyl]benzoyl]amino]-L-phenylalanine]
